Where two headings read alike, the source gives them in different places.
How the values were obtained:
[1] = Pharmacokinetic profile after single oral, intranasal and intravenous betahistine in beagle dogs, Example 5; assay type: in vivo; conditions: beagle, dog, in vivo
Procedure: In this study, the pharmacokinetic profile of betahistine was evaluated after a single dose administration of betahistine in male and female beagle dogs (age 5-7 months; weight of 5-11 kg, within a range of 3 kg for each sex) for three routes of administration: oral, intranasal, and intravenous.
On Day 1 of the study, betahistine (BH) was delivered orally at a dose of 12 mg/kg, 24 mg/kg, or 48 mg/kg. Each treatment group comprised 8 animals (4 males and 4 females). For pharmacokinetic assessment, plasma samples were collected prior to dosing, and then at 5, 10, 20 and 30 min, 1, 2, 3, 6, 24 hours after dosing.
On Day 8 of the study, the animals that received oral BH at a dose of 12 mg/kg were administered the test betahistine composition intranasally at a dose of 40 mg betahistine dihydrochloride; the animals that received oral BH at a dose of 24 mg/kg were administered the test betahistine composition intranasally at a dose of 80 mg betahistine dihydrochloride; and the animals that received oral BH at a dose of 48 mg/kg were administered the test betahistine composition intranasally at a dose of 120 mg betahistine dihydrochloride. The test betahistine composition was delivered intranasally in a single dose via an Aptar nasal spray pump device at a total dose level of 40, 80 and 120 mg of betahistine dihydrochloride. Plasma samples were collected prior to dosing, and then at 5, 10, 20 and 30 min, 1, 2, 3, 6, 24 hours after dosing.
On Day 15 of the study, the animals that received oral BH at a dose of 12 mg/kg and the test betahistine composition intranasally at a dose of 40 mg betahistine dihydrochloride were administered a bolus intravenous injection of betahistine at a dose of 0.44 mg/kg. Plasma samples were collected prior to dosing, and then at 5, 10, 20 and 30 min, 1, 2, 3, 6, 24 hours after dosing.
Betahistine 13CD3 dihydrochloride and 2-pyridylacetic acid-D4 hydrochloride were used as respective internal standards. The calibration range for betahistine was 0.05-250 ng/mL and for 2-PAA 2.00-3000 ng/mL using a plasma sample volume of 0.50 mL.
For determination of betahistine, the method involved liquid-liquid extraction, for 2-PAA, the method involved protein precipitation. Plasma samples were prepared for betahistine by extraction under basic conditions with an organic solvent, then the organic phase was dried, reconstituted and transferred for LC/MS-MS analysis. […] Sample analysis was performed using reversed phase chromatography.

[2] = cited from earlier work; for Tmax: 2-PAA after oral betahistine
[3] = female, inhaled or intranasal, 6 mg/kg
[4] = female, inhaled or intranasal, 13 mg/kg
[5] = female, inhaled or intranasal, 17.7 mg/kg
[6] = male, inhaled or intranasal, 5 mg/kg
[7] = male, inhaled or intranasal, 9.8 mg/kg
[8] = male, inhaled or intranasal, 15.8 mg/kg

- AUC(0-inf) [1, 3]: 19000 ng·h/mL
- AUC(0-t)/D [1, 3]: 3170 ± 812 hr*ng/mL/(mg/kg)
- Cmax [1, 3]: 5570 ng/mL
- Cmax/D [1, 3]: 928 ng/mL/(mg/kg)
- Tmax [1, 3]: 0.75 h
- half-life [1, 3]: 2.66 h
- AUC(0-t) ([1]; female, inhaled or intranasal, 6 mg/kg, AUC(0-6)): 14800 ng·h/mL
- AUC(0-t) ([1]; female, inhaled or intranasal, 6 mg/kg, AUC(0-t)): 19000 ng·h/mL
- AUC(0-inf) [1, 4]: 25300 ng·h/mL
- AUC(0-t)/D [1, 4]: 1940 ± 838 hr*ng/mL/(mg/kg)
- Cmax [1, 4]: 7030 ng/mL
- Cmax/D [1, 4]: 541 ng/mL/(mg/kg)
- Tmax [1, 4]: 1 h
- half-life [1, 4]: 2.97 h
- AUC(0-t) ([1]; female, inhaled or intranasal, 13 mg/kg, AUC(0-6)): 19300 ng·h/mL
- AUC(0-t) ([1]; female, inhaled or intranasal, 13 mg/kg, AUC(0-t)): 25200 ng·h/mL
- AUC(0-6) [1, 5]: 10600 ng·h/mL
- AUC(0-inf) [1, 5]: 14100 ng·h/mL
- AUC(0-t)/D [1, 5]: 790 ± 307 hr*ng/mL/(mg/kg)
- Cmax [1, 5]: 3810 ng/mL
- Cmax/D [1, 5]: 215 ng/mL/(mg/kg)
- T1/2 [1, 5]: 3.46 h
- AUC(0-t) ([1]; female, inhaled or intranasal, 17.7 mg/kg, AUC(0-t)): 14000 ng·h/mL
- AUC(0-6) ([1]; female, iv, 0.44 mg/kg): 1540 ± 101 ng·h/mL
- AUC(0-inf) ([1]; female, iv, 0.44 mg/kg): 1860 ± 188 ng·h/mL
- AUC(0-t) ([1]; female, iv, 0.44 mg/kg): 1830 ± 209 ng·h/mL
- AUC(0-t)/D ([1]; female, iv, 0.44 mg/kg): 4160 ± 475 hr*ng/mL/(mg/kg)
- Cmax ([1]; female, iv, 0.44 mg/kg): 722 ± 75.3 ng/mL
- Cmax/D ([1]; female, iv, 0.44 mg/kg): 1640 ± 171 ng/mL/(mg/kg)
- T1/2 ([1]; female, iv, 0.44 mg/kg): 2.78 h
- Tmax (median) ([1]; female, iv, 0.44 mg/kg): 0.18 h
- AUC(0-6) ([1]; female, po, 12 mg/kg): 41300 ng·h/mL
- AUC(0-int) ([1]; female, po, 12 mg/kg): 57200 ± 11300 ng·h/mL
- AUC(0-t) ([1]; female, po, 12 mg/kg): 57200 ± 11300 ng·h/mL
- AUC(0-t)/D ([1]; female, po, 12 mg/kg): 4760 ± 940 hr*ng/mL/(mg/kg)
- Cmax ([1]; female, po, 12 mg/kg): 14500 ng/mL
- Cmax/D ([1]; female, po, 12 mg/kg): 1210 ng/mL/(mg/kg)
- T1/2 ([1]; female, po, 12 mg/kg): 2.12 ± 0.110 h
- AUC(0-6) ([1]; female, po, 24 mg/kg): 69300 ng·h/mL
- AUC(0-int) ([1]; female, po, 24 mg/kg): 110000 ± 14300 ng·h/mL
- AUC(0-t) ([1]; female, po, 24 mg/kg): 110000 ± 14300 ng·h/mL
- AUC(0-t)/D ([1]; female, po, 24 mg/kg): 4590 ± 594 hr*ng/mL/(mg/kg)
- Cmax ([1]; female, po, 24 mg/kg): 21300 ng/mL
- Cmax/D ([1]; female, po, 24 mg/kg): 885 ng/mL/(mg/kg)
- T1/2 ([1]; female, po, 24 mg/kg): 2.14 ± 0.176 h
- Tmax (median) ([1]; female, po, 24 mg/kg): 2 h
- AUC(0-6) ([1]; female, po, 48 mg/kg): 144000 ng·h/mL
- AUC(0-int) ([1]; female, po, 48 mg/kg): 208000 ± 35000 ng·h/mL
- AUC(0-t) ([1]; female, po, 48 mg/kg): 237000 ± 63500 ng·h/mL
- AUC(0-t)/D ([1]; female, po, 48 mg/kg): 4930 ± 1320 hr*ng/mL/(mg/kg)
- Cmax ([1]; female, po, 48 mg/kg): 37500 ng/mL
- Cmax/D ([1]; female, po, 48 mg/kg): 781 ng/mL/(mg/kg)
- T1/2 ([1]; female, po, 48 mg/kg): 2.24 ± 0.170 h
- Tmax (median) ([1]; female, po, 48 mg/kg): 2 h
- AUC(0-6) [1, 6]: 9440 ng·h/mL
- AUC(0-inf) [1, 6]: 12200 ng·h/mL
- AUC(0-t) [1, 6]: 12200 ng·h/mL
- AUC(0-t)/D [1, 6]: 2440 ± 2160 hr*ng/mL/(mg/kg)
- Cmax [1, 6]: 3480 ng/mL
- Cmax/D [1, 6]: 695 ng/mL/(mg/kg)
- T1/2 [1, 6]: 2.96 h
- Tmax (median) [1, 6]: 0.5 h
- AUC(0-inf) [1, 7]: 10400 ng·h/mL
- AUC(0-t)/D [1, 7]: 1060 ± 368 hr*ng/mL/(mg/kg)
- Cmax [1, 7]: 3320 ng/mL
- Cmax/D [1, 7]: 339 ng/mL/(mg/kg)
- Tmax [1, 7]: 1 h
- half-life [1, 7]: 2.86 h
- AUC(0-t) ([1]; male, inhaled or intranasal, 9.8 mg/kg, AUC(0-6)): 8450 ng·h/mL
- AUC(0-t) ([1]; male, inhaled or intranasal, 9.8 mg/kg, AUC(0-t)): 10400 ng·h/mL
- AUC(0-inf) [1, 8]: 12800 ng·h/mL
- AUC(0-t)/D [1, 8]: 806 ± 197 hr*ng/mL/(mg/kg)
- Cmax [1, 8]: 3930 ng/mL
- Cmax/D [1, 8]: 249 ng/mL/(mg/kg)
- Tmax [1, 8]: 1 h
- half-life [1, 8]: 2.87 h
- AUC(0-t) ([1]; male, inhaled or intranasal, 15.8 mg/kg, AUC(0-6)): 10200 ng·h/mL
- AUC(0-t) ([1]; male, inhaled or intranasal, 15.8 mg/kg, AUC(0-t)): 12700 ng·h/mL
- AUC(0-6) ([1]; male, iv, 0.44 mg/kg): 1450 ± 388 ng·h/mL
- AUC(0-inf) ([1]; male, iv, 0.44 mg/kg): 1760 ± 642 ng·h/mL
- AUC(0-t) ([1]; male, iv, 0.44 mg/kg): 1740 ± 641 ng·h/mL
- AUC(0-t)/D ([1]; male, iv, 0.44 mg/kg): 3960 ± 1460 hr*ng/mL/(mg/kg)
- Cmax ([1]; male, iv, 0.44 mg/kg): 736 ± 53.5 ng/mL
- Cmax/D ([1]; male, iv, 0.44 mg/kg): 1670 ± 121 ng/mL/(mg/kg)
- T1/2 ([1]; male, iv, 0.44 mg/kg): 2.59 h
- Tmax (median) ([1]; male, iv, 0.44 mg/kg): 0.13 h
- AUC(0-6) ([1]; male, po, 12 mg/kg): 37300 ng·h/mL
- AUC(0-int) ([1]; male, po, 12 mg/kg): 50500 ± 21100 ng·h/mL
- AUC(0-t) ([1]; male, po, 12 mg/kg): 50500 ± 21100 ng·h/mL
- AUC(0-t)/D ([1]; male, po, 12 mg/kg): 4210 ± 1760 hr*ng/mL/(mg/kg)
- Cmax ([1]; male, po, 12 mg/kg): 12700 ng/mL
- Cmax/D ([1]; male, po, 12 mg/kg): 1060 ng/mL/(mg/kg)
- T1/2 ([1]; male, po, 12 mg/kg): 2.21 ± 0.160 h
- AUC(0-int) ([1]; male, po, 24 mg/kg): 107000 ± 28200 ng·h/mL
- AUC(0-t)/D ([1]; male, po, 24 mg/kg): 4460 ± 1180 hr*ng/mL/(mg/kg)
- Cmax ([1]; male, po, 24 mg/kg): 26400 ng/mL
- Cmax/D ([1]; male, po, 24 mg/kg): 1100 ng/mL/(mg/kg)
- T1/2 ([1]; male, po, 24 mg/kg): 2.04 ± 0.107 h
- Tmax ([1]; male, po, 24 mg/kg): 1.5 h
- AUC(0-t) ([1]; male, po, 24 mg/kg, AUC(0-6)): 76400 ng·h/mL
- AUC(0-t) ([1]; male, po, 24 mg/kg, AUC(0-t)): 107000 ± 28200 ng·h/mL
- AUC(0-6) ([1]; male, po, 48 mg/kg): 178000 ng·h/mL
- AUC(0-int) ([1]; male, po, 48 mg/kg): 286000 ± 39300 ng·h/mL
- AUC(0-t) ([1]; male, po, 48 mg/kg): 286000 ± 39200 ng·h/mL
- AUC(0-t)/D ([1]; male, po, 48 mg/kg): 5950 ± 817 hr*ng/mL/(mg/kg)
- Cmax ([1]; male, po, 48 mg/kg): 50900 ng/mL
- Cmax/D ([1]; male, po, 48 mg/kg): 1060 ng/mL/(mg/kg)
- T1/2 ([1]; male, po, 48 mg/kg): 2.10 ± 0.181 h
- Tmax (median) ([1]; male, po, 48 mg/kg): 2 h
SMILES: O=C(O)Cc1ccccn1 [2-PAA, 2-pyridylacetic acid]
- peak concentration ([2]; human, 2-PAA after oral betahistine 16 mg, Val et al.): 522 ng/mL
- Tmax ([2]; human, Chen et al. (2003)): 1 h
- Tmax ([2]; human, Moorthy et al.): 1.5 h
- pharmacological activity ([2]; metabolite formed by monoamine oxidase): no pharmacological activity
